Test systems include OVCAR-3 ovarian; SNB-19 CNS; HCC-2998 colon; MDA-MB-231 breast; U251 CNS; NCI-H23 lung; MDA-MB-435; HS 578T breast; IGROV1 ovarian; CCRF-CEM leukemia.
Assay in all cases: NCI-60 cell line screen, 48 h

Several values for one entry are separate records, joined by “and”; a condition that tells them apart may be missing. Equal values may be shown once.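 Protocol summary: plate cells (96-well), add compound at 5 concentrations, incubate 48 h, interpolate endpoints linearly. GI50 = concentration required for 50% inhibition of growth. TGI is the concentration that stops growth completely.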 Bounds are passed on as bounds.

Eight compounds from PubChem BioAssay (NCI) can be followed below.

Consider `CCOC(=O)c1c(NC(=O)c2cccc(C(F)(F)F)c2)sc2c(CN(C)C)c(O)ccc12`, for which the GI50 in the test on OVCAR-3 ovarian is 10.1 µM; in the test with SNB-19 CNS it was 10.6 µM; in the test on HCC-2998 colon, 1.77 µM; with MDA-MB-231 breast it was 4.23 µM; with U251 CNS, 2.21 µM; in the test with NCI-H23 lung, 13.1 µM. The GI50 is 3.15 µM in the test on MDA-MB-435, 6.78 µM in the test on HS 578T breast, 12.2 µM in the test on IGROV1 ovarian and 3.41 µM in the test with CCRF-CEM leukemia. The TGI in the test on OVCAR-3 ovarian is 21.7 µM; with SNB-19 CNS it was 22.8 µM; in the test on HCC-2998 colon it was 3.77 µM; with MDA-MB-231 breast it was 15.2 µM; with U251 CNS, 5.45 µM; with NCI-H23 lung, 32.1 µM. Besides, the TGI came to 12.9 µM in the test with MDA-MB-435, 26.4 µM with HS 578T breast, 28.8 µM in the test on IGROV1 ovarian and 11.7 µM in the test with CCRF-CEM leukemia.

Take `N=C(N)c1ccc2nc(-c3cc(CC(=O)N[C@@H](CC(=O)O)C(=O)O)cc(-c4cc(S(N)(=O)=O)ccc4O)c3O)[nH]c2c1`: the GI50 with OVCAR-3 ovarian, in the test with SNB-19 CNS, with HCC-2998 colon, in the test on MDA-MB-231 breast, with U251 CNS and with NCI-H23 lung was over 100 µM throughout. Further, the GI50 with MDA-MB-435, in the test on HS 578T breast, in the test with IGROV1 ovarian and in the test with CCRF-CEM leukemia was over 100 µM throughout. For the same compound, the TGI in the test on OVCAR-3 ovarian, in the test with SNB-19 CNS, in the test with HCC-2998 colon, in the test with MDA-MB-231 breast, in the test on U251 CNS and in the test with NCI-H23 lung was over 100 µM throughout. Further, the TGI in the test on MDA-MB-435, in the test on HS 578T breast, in the test on IGROV1 ovarian and with CCRF-CEM leukemia was over 100 µM in each case.

`Cc1nc2sc3c(c2c(=O)[nH]1)CCCC3`: the TGI with OVCAR-3 ovarian, in the test on SNB-19 CNS, in the test with MDA-MB-231 breast, in the test on U251 CNS, in the test with NCI-H23 lung and in the test on MDA-MB-435 was over 100 µM throughout. The TGI with HS 578T breast and in the test with IGROV1 ovarian was over 100 µM throughout.

Turning to `COc1cc(OC)c(/C=C/c2c3ccccc3cc[n+]2C)c(OC)c1`, the GI50 was 1.23 µM in the test with OVCAR-3 ovarian; 1.88 µM in the test on SNB-19 CNS; 1.65 µM in the test on HCC-2998 colon; 3.46 µM with MDA-MB-231 breast; 1.1 µM in the test on U251 CNS; 1.29 µM with NCI-H23 lung. The GI50 was 0.781 µM with MDA-MB-435, 2.43 µM with HS 578T breast, 2.32 µM with IGROV1 ovarian and 2.08 µM with CCRF-CEM leukemia. Moreover, the TGI was determined as 9.78 µM in the test on OVCAR-3 ovarian; 25 µM in the test with SNB-19 CNS; 14.7 µM in the test with HCC-2998 colon; 31.4 µM with MDA-MB-231 breast; 14.1 µM in the test with U251 CNS; 25.8 µM with NCI-H23 lung. The TGI was 10.1 µM in the test with MDA-MB-435, 37.5 µM with HS 578T breast, 19.8 µM with IGROV1 ovarian and over 72.1 µM in the test on CCRF-CEM leukemia.

In the case of `O=C(Nc1ccc(-n2ccc3c(NC(=O)c4ccccc4)nccc32)cc1)Nc1ccc(Cl)c(Cl)c1`, the GI50 in the test with OVCAR-3 ovarian is 1.34 µM; in the test on SNB-19 CNS, 1.13 µM; in the test with HCC-2998 colon it was 1.47 µM; in the test with MDA-MB-231 breast, 1.23 µM; with U251 CNS, 0.373 µM; with NCI-H23 lung, 5.2 µM. Besides, the GI50 in the test on MDA-MB-435 was 1.31 µM; in the test on HS 578T breast, 0.791 µM; in the test with IGROV1 ovarian, 1.76 µM; in the test on CCRF-CEM leukemia it was 0.252 µM. For the same compound, the TGI in the test with OVCAR-3 ovarian is 2.75 µM; in the test with SNB-19 CNS, 4.4 µM; in the test on HCC-2998 colon, 3.65 µM; with MDA-MB-231 breast, 2.82 µM; with U251 CNS it was 1.92 µM; in the test on NCI-H23 lung, 28.6 µM. Also, the TGI in the test with MDA-MB-435 stood at 2.81 µM; with HS 578T breast, 3.47 µM; in the test on IGROV1 ovarian, 11 µM; in the test on CCRF-CEM leukemia, 1.93 µM.

For `Cc1cc(C)c(NC(=O)c2sc3nc4c(cc3c2N)CN(Cc2ccccc2)CC4)c(C)c1`, the GI50 in the test on OVCAR-3 ovarian was 2.32 µM; in the test with SNB-19 CNS, 7.21 µM; with HCC-2998 colon, 5.33 µM; in the test on MDA-MB-231 breast, 5.75 µM; in the test on U251 CNS, 4.35 µM; in the test with NCI-H23 lung, 4.51 µM. Moreover, the GI50 in the test on MDA-MB-435 is 0.399 µM; in the test on HS 578T breast, 2.66 µM; in the test with IGROV1 ovarian it was 6.54 µM; in the test with CCRF-CEM leukemia, 3.16 µM. In addition, the TGI with OVCAR-3 ovarian was 12.6 µM; with SNB-19 CNS it was over 100 µM; in the test on HCC-2998 colon, 38.4 µM; with MDA-MB-231 breast, 58.9 µM; in the test on U251 CNS it was 24.2 µM; in the test with NCI-H23 lung it was over 100 µM. Moreover, the TGI with MDA-MB-435 is 4.38 µM; with HS 578T breast, 65.9 µM; in the test with IGROV1 ovarian, over 100 µM; in the test on CCRF-CEM leukemia it was 59.7 µM.

Regarding `O=C(Nc1ccc(F)cc1)c1cc(S(=O)(=O)Nc2nc3ccccc3o2)c(SCc2ccccc2)cc1Cl`, the GI50 was 14.8 µM in the test with OVCAR-3 ovarian; 47 µM with SNB-19 CNS; 18.4 µM in the test with HCC-2998 colon; 14.5 µM in the test with MDA-MB-231 breast; 17.3 µM in the test with U251 CNS; 19.5 µM with NCI-H23 lung. In addition, the GI50 in the test with MDA-MB-435 was 16.3 µM; with HS 578T breast it was 19.1 µM; in the test with IGROV1 ovarian it was 0.611 µM; in the test with CCRF-CEM leukemia, 12.9 µM. In addition, the TGI is 28.1 µM in the test on OVCAR-3 ovarian; over 100 µM in the test with SNB-19 CNS; 32.6 µM with HCC-2998 colon; 29.5 µM in the test on MDA-MB-231 breast; 31.7 µM in the test with U251 CNS; 36.9 µM in the test on NCI-H23 lung. Besides, the TGI amounted to 30.7 µM with MDA-MB-435, 44.5 µM in the test on HS 578T breast, 21.3 µM in the test with IGROV1 ovarian and 31.2 µM with CCRF-CEM leukemia.

Consider `CC[C@H]1CN2CCc3cc(OC)c(OC)cc3[C@@H]2C[C@@H]1C[C@H]1NCCc2c1[nH]c1ccc(O)cc21`, for which the GI50 is 0.0156 µM with OVCAR-3 ovarian; 0.0249 µM and 0.0636 µM in the test on SNB-19 CNS; 0.0229 µM and 0.0287 µM in the test on HCC-2998 colon; 0.0153 µM with MDA-MB-231 breast; 0.0222 µM and 0.0255 µM with U251 CNS; 0.0177 µM and 0.0303 µM in the test with NCI-H23 lung. For the same compound, the GI50 with IGROV1 ovarian was 0.0267 µM and 0.0328 µM; in the test with CCRF-CEM leukemia it was 0.0129 µM and 0.0207 µM. For the same compound, the TGI in the test with OVCAR-3 ovarian was 0.0622 µM and 0.089 µM and 0.25 µM; in the test on HCC-2998 colon, 0.0568 µM and 0.0856 µM and 0.0758 µM; with MDA-MB-231 breast it was 0.0483 µM; in the test on U251 CNS, 0.0702 µM and 0.075 µM and 0.154 µM; in the test on NCI-H23 lung, 0.0472 µM and 0.112 µM and 0.0706 µM; with MDA-MB-435, 0.261 µM. The TGI in the test with HS 578T breast was 0.0653 µM and 0.0327 µM; with IGROV1 ovarian it was 0.0806 µM and 0.159 µM and 0.196 µM; with CCRF-CEM leukemia, 0.239 µM and 0.054 µM and 0.326 µM.
